Data taken from PubChem BioAssay AID1919002 (Molecular Pharmacology Branch, DTP, NCI, 2023).
Where “and” joins values, the source holds several entries; their conditions need not be identical. Identical values can stand only once.

Test system: 743489-274-T-PDC complex spheroid growth
Experiment: Anticancer human tumor 743489-274-T-PDC patient-derived renal cell carcinoma cell line growth inhibition [AhR]
Conditions: for viability, T/C: stronger effect = lower value
Summary of the method: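 Complex tumor spheroids co-cultured with HUVEC and human MSC stroma; AhR antagonists tested in combination with standard-of-care and investigational agents. Top concentration at or near clinical Cmax (else 10 microM), half-log dilutions; growth expressed as percent test/control.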

[1] = curve of first compound, second compound 0.1 µM
[2] = curve of first compound, second compound 0.316 µM
[3] = curve of first compound, second compound 1 µM
[4] = curve of first compound, second compound 3.16 µM
[5] = curve of first compound, second compound 10 µM
[6] = second compound 0.1 µM, first compound 0.00316 µM
[7] = second compound 0.1 µM, first compound 0.01 µM
[8] = second compound 0.1 µM, first compound 0.0316 µM
[9] = second compound 0.1 µM, first compound 0.1 µM
[10] = second compound 0.316 µM, first compound 0.00316 µM
[11] = second compound 0.316 µM, first compound 0.01 µM
[12] = second compound 0.316 µM, first compound 0.0316 µM
[13] = second compound 0.316 µM, first compound 0.1 µM
[14] = second compound 1 µM, first compound 0.00316 µM
[15] = second compound 1 µM, first compound 0.01 µM
[16] = second compound 1 µM, first compound 0.0316 µM
[17] = second compound 1 µM, first compound 0.1 µM
[18] = second compound 3.16 µM, first compound 0.00316 µM
[19] = second compound 3.16 µM, first compound 0.01 µM
[20] = second compound 3.16 µM, first compound 0.0316 µM
[21] = second compound 3.16 µM, first compound 0.1 µM
[22] = second compound 10 µM, first compound 0.00316 µM
[23] = second compound 10 µM, first compound 0.01 µM
[24] = second compound 10 µM, first compound 0.0316 µM
[25] = second compound 10 µM, first compound 0.1 µM
[26] = second compound 0.1 µM, first compound 0.316 µM
[27] = second compound 0.1 µM, first compound 1 µM
[28] = second compound 0.316 µM, first compound 0.316 µM
[29] = second compound 0.316 µM, first compound 1 µM
[30] = second compound 1 µM, first compound 0.316 µM
[31] = second compound 1 µM, first compound 1 µM
[32] = second compound 3.16 µM, first compound 0.316 µM
[33] = second compound 3.16 µM, first compound 1 µM
[34] = second compound 10 µM, first compound 0.316 µM
[35] = second compound 10 µM, first compound 1 µM
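Note: spheroids exposed to agents for 7 days before readout.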
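Throughout, for viability, T/C: 100% = DMSO vehicle control wells.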

For Cn1ncnc1C1c2n[nH]c(=O)c3cc(F)cc(c23)NC1c1ccc(F)cc1 (configuration not stated) + Cc1cncc(-c2nc(NCCc3c[nH]c4ccccc34)c3ncn(C(C)C)c3n2)c1, the IC50 [1] was > 0.1 µM, the IC50 [2] was > 0.1 µM and the IC50 [3] was > 0.1 µM. The IC50 [4] was > 0.1 µM, the IC50 [5] was > 0.1 µM and the viability, T/C (second compound 0.1 µM, first compound 0.000316 µM) was 95.5%. The viability, T/C (second compound 0.1 µM, first compound 0.001 µM) was 104%, the viability, T/C [6] was 90.8% and the viability, T/C [7] was 87.9%. It also gave a viability, T/C [8] of 89.6%, a viability, T/C [9] of 98.8% and a viability, T/C (second compound 0.316 µM, first compound 0.000316 µM) of 88.8%. For the same compound, the viability, T/C (second compound 0.316 µM, first compound 0.001 µM) was 91.8%, the viability, T/C [10] was 96.1% and the viability, T/C [11] was 96.2%. For the same compound, the viability, T/C [12] was 93.3%, the viability, T/C [13] was 95.7% and the viability, T/C (second compound 1 µM, first compound 0.000316 µM) was 103%. It also gave a viability, T/C (second compound 1 µM, first compound 0.001 µM) of 96%, a viability, T/C [14] of 97% and a viability, T/C [15] of 101%. The viability, T/C [16] was 96.7%, the viability, T/C [17] was 88.2% and the viability, T/C (second compound 3.16 µM, first compound 0.000316 µM) was 121%. For the same compound, the viability, T/C (second compound 3.16 µM, first compound 0.001 µM) was 102%, the viability, T/C [18] was 99.2% and the viability, T/C [19] was 114%. It also gave a viability, T/C [20] of 99.3%, a viability, T/C [21] of 94.5% and a viability, T/C (second compound 10 µM, first compound 0.000316 µM) of 128%. It also gave a viability, T/C (second compound 10 µM, first compound 0.001 µM) of 117%, a viability, T/C [22] of 139% and a viability, T/C [23] of 121%. The viability, T/C [24] was 111% and the viability, T/C [25] was 131%.
For CC1(C)CCC(CN2CCN(c3ccc(C(=O)NS(=O)(=O)c4ccc(NCC5CCOCC5)c([N+](=O)[O-])c4)c(Oc4cnc5[nH]ccc5c4)c3)CC2)=C(c2ccc(Cl)cc2)C1 + Cc1cncc(-c2nc(NCCc3c[nH]c4ccccc34)c3ncn(C(C)C)c3n2)c1, the IC50 [1] was > 10 µM, the IC50 [2] was > 10 µM and the IC50 [3] was > 10 µM. For the same compound, the IC50 [4] was > 10 µM, the IC50 [5] was > 10 µM and the viability, T/C [8] was 103%. The viability, T/C [9] was 105%, the viability, T/C [26] was 107% and the viability, T/C [27] was 106%. For the same compound, the viability, T/C (second compound 0.1 µM, first compound 3.16 µM) was 99.5%, the viability, T/C (second compound 0.1 µM, first compound 10 µM) was 113% and the viability, T/C [12] was 98.5%. It also gave a viability, T/C [13] of 110%, a viability, T/C [28] of 106% and a viability, T/C [29] of 104%. The viability, T/C (second compound 0.316 µM, first compound 3.16 µM) was 104%, the viability, T/C (second compound 0.316 µM, first compound 10 µM) was 123% and the viability, T/C [16] was 99.4%. The viability, T/C [17] was 108%, the viability, T/C [30] was 103% and the viability, T/C [31] was 114%. It also gave a viability, T/C (second compound 1 µM, first compound 3.16 µM) of 133%, a viability, T/C (second compound 1 µM, first compound 10 µM) of 128% and a viability, T/C [20] of 116%. The viability, T/C [21] was 123%, the viability, T/C [32] was 119% and the viability, T/C [33] was 135%. For the same compound, the viability, T/C (second compound 3.16 µM, first compound 3.16 µM) was 145%, the viability, T/C (second compound 3.16 µM, first compound 10 µM) was 138% and the viability, T/C [24] was 106%. It also gave a viability, T/C [25] of 111%, a viability, T/C [34] of 112% and a viability, T/C [35] of 133%. It also gave a viability, T/C (second compound 10 µM, first compound 3.16 µM) of 151% and a viability, T/C (second compound 10 µM, first compound 10 µM) of 227%.
With CC1COCCN1c1cc(-c2ccnn2C)c2ccnc(-c3ccn[nH]3)c2n1 (configuration not stated) + Cc1cncc(-c2nc(NCCc3c[nH]c4ccccc34)c3ncn(C(C)C)c3n2)c1 the IC50 [1] was > 1 µM, the IC50 [2] was > 1 µM and the IC50 [3] was > 1 µM. For the same compound, the IC50 [4] was > 1 µM, the IC50 [5] was > 1 µM and the viability, T/C [6] was 106%. It also gave a viability, T/C [7] of 106%, a viability, T/C [8] of 113% and a viability, T/C [9] of 105%. It also gave a viability, T/C [26] of 100%, a viability, T/C [27] of 84.5% and a viability, T/C [10] of 99.7%. For the same compound, the viability, T/C [11] was 107%, the viability, T/C [12] was 109% and the viability, T/C [13] was 105%. The viability, T/C [28] was 95.4%, the viability, T/C [29] was 80.3% and the viability, T/C [14] was 108%. It also gave a viability, T/C [15] of 104%, a viability, T/C [16] of 116% and a viability, T/C [17] of 99.8%. It also gave a viability, T/C [30] of 102%, a viability, T/C [31] of 85% and a viability, T/C [18] of 120%. The viability, T/C [19] was 126%, the viability, T/C [20] was 122% and the viability, T/C [21] was 113%. The viability, T/C [32] was 99.4%, the viability, T/C [33] was 89.1% and the viability, T/C [22] was 116%. For the same compound, the viability, T/C [23] was 148%, the viability, T/C [24] was 143% and the viability, T/C [25] was 142%. It also gave a viability, T/C [34] of 124% and a viability, T/C [35] of 109%.
For Nc1ncn(C2CC(O)C(CO)S2)c(=O)n1 (configuration not stated), the viability, T/C (compound 0.000949 µM) was 110% and 93.5% and 116%, the viability, T/C (compound 0.003 µM) was 104% and 98.1% and 105% and the viability, T/C (compound 0.00949 µM) was 96.2% and 94.2% and 111%. For the same compound, the viability, T/C (compound 0.03 µM) was 102% and 85.6% and 96.6%, the viability, T/C (compound 0.0949 µM) was 97.2% and 95% and 103% and the viability, T/C (compound 0.3 µM) was 97.2% and 89.2% and 103%. For the same compound, the IC50 (curve of compound) was > 0.3 µM.
